Assay results published in patent publication US20250296953A1, “3,4-THIAZOLO-STEROIDS AND METHODS OF MAKING AND USING THE SAME” (Arkansas State University - Jonesboro, priority 2018, published 2025).

Columns and labels:
[1] = tested on: SK-MEL-25; assay: Melanoma cytotoxicity assay (resazurin); type: cell-based; conditions: SK-MEL-25 melanoma cells, 24 hours with compound, resazurin; concentration not given
Outline: (§1)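 Following 24 h of compound treatment (triplicates, 37° C, 5% CO2) of cells seeded one day earlier at about 4000 per well, viability was gauged with resazurin. IC50 values derive from sigmoidal concentration–viability curves.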

[2] = tested on: SK-MEL-28; assay: Melanoma cytotoxicity assay (resazurin); type: cell-based; conditions: SK-MEL-28 melanoma cells, 24 hours with compound, resazurin; concentration not given
Outline: as §1

[3] = tested on: SF-539; assay: NCI 60 one dose screen; type: cell-based, human; conditions: one dose; CNS Cancer; SF-539
[4] = tested on: 60 different human tumor cell lines; assay: NCI Development Therapeutics Program 60 cell line screen, one dose; type: cell-based
[5] = tested on: HCT-15 (Colon Cancer); assay: NCI 60 one dose screen; type: cell-based, human
[6] = tested on: SF-295; assay: NCI 60 one dose screen; type: cell-based, human; conditions: one dose; CNS Cancer; SF-295
[7] = Non-small Cell Lung Cancer, A549/ATCC
[8] = Non-small Cell Lung Cancer, EKVX
[9] = Non-small Cell Lung Cancer, HOP-62
[10] = Non-small Cell Lung Cancer, HOP-92
[11] = Non-small Cell Lung Cancer, NCI-H23
[12] = Non-small Cell Lung Cancer, NCI-H226
[13] = Non-small Cell Lung Cancer, NCI-H322M
[14] = Non-small Cell Lung Cancer, NCI-H460

## C[C@]12CCc3sc(NCCc4ccccc4)nc3C1=CC[C@@H]1[C@@H]2CC[C@]2(C)C(=O)CC[C@@H]12 [IIa.2, (1S,2R,13R,14S,18S)-2,18-dimethyl-7-(2-phenylethylamino)-6-thia-8-azapentacyclo [11.7.0.02,10.05,9.014,18]icosa-5(9),7,10-trien-17-one]
[1]
  SK-MEL-25 (% inhibition): 59%
[2]
  SK-MEL-28 (% inhibition): 79%
[3]
  Growth Percent: 64.79%
[4]; Breast Cancer, BT-549
  Growth Percent: 60.37%
[4]; Breast Cancer, HS 578T
  Growth Percent: 75.51%
[4]; Breast Cancer, MCF7
  Growth Percent: 20.41%
[4]; Breast Cancer, MDA-MB-231/ATCC
  Growth Percent: 83.12%
[4]; Breast Cancer, MDA-MB-468
  Growth Percent: 32.92%
[4]; Breast Cancer, T-47D
  Growth Percent: 75.21%
[4]; CNS Cancer, SF-268
  Growth Percent: 83.93%
[4]; CNS Cancer, SNB-19
  Growth Percent: 80.20%
[4]; CNS Cancer, SNB-75
  Growth Percent: 85.55%
[4]; CNS Cancer, U251
  Growth Percent: 60.12%
[4]; Colon Cancer, COLO 205
  Growth Percent: 90.61%
[4]; Colon Cancer, HCC-2998
  Growth Percent: 105.58%
[4]; Colon Cancer, HCT-116
  Growth Percent: 21.16%
[4]; Colon Cancer, HT29
  Growth Percent: 34.29%
[4]; Colon Cancer, KM12
  Growth Percent: 74.67%
[4]; Colon Cancer, SW-620
  Growth Percent: 35.34%
[4]; Leukemia, CCRF-CEM
  Growth Percent: 8.44%
[4]; Leukemia, HL-60(TB)
  Growth Percent: 1.45%
[4]; Leukemia, K-562
  Growth Percent: 5.14%
[4]; Leukemia, MOLT-4
  Growth Percent: 4.71%
[4]; Leukemia, RPMI-8226
  Growth Percent: −5.28%
[4]; Leukemia, SR
  Growth Percent: 0.92%
[4]; Melanoma, LOX IMVI
  Growth Percent: 70.22%
[4]; Melanoma, M14
  Growth Percent: 85.36%
[4]; Melanoma, MALME-3M
  Growth Percent: 73.32%
[4]; Melanoma, MDA-MB-435
  Growth Percent: 58.12%
[4]; Melanoma, SK-MEL-2
  Growth Percent: 92.09%
[4]; Melanoma, SK-MEL-5
  Growth Percent: 65.96%
[4]; Melanoma, SK-MEL-28
  Growth Percent: 83.31%
[4]; Melanoma, UACC-62
  Growth Percent: 75.59%
[4]; Melanoma, UACC-257
  Growth Percent: 87.36%
[4]; [7]
  Growth Percent: 87.76%
[4]; [8]
  Growth Percent: 92.45%
[4]; [9]
  Growth Percent: 101.67%
[4]; [10]
  Growth Percent: 66.42%
[4]; [11]
  Growth Percent: 66.61%
[4]; [12]
  Growth Percent: 84.07%
[4]; [13]
  Growth Percent: 91.89%
[4]; [14]
  Growth Percent: 72.80%
[4]; Ovarian Cancer, IGROV1
  Growth Percent: 87.98%
[4]; Ovarian Cancer, NCI/ADR-RES
  Growth Percent: 70.16%
[4]; Ovarian Cancer, OVCAR-3
  Growth Percent: 6.41%
[4]; Ovarian Cancer, OVCAR-4
  Growth Percent: 74.22%
[4]; Ovarian Cancer, OVCAR-5
  Growth Percent: 100.34%
[4]; Ovarian Cancer, OVCAR-8
  Growth Percent: 72.09%
[4]; Ovarian Cancer, SK-OV-3
  Growth Percent: 111.53%
[4]; Prostate Cancer, DU-145
  Growth Percent: 33.94%
[4]; Prostate Cancer, PC-3
  Growth Percent: 38.82%
[4]; Renal Cancer, 786-0
  Growth Percent: 4.36%
[4]; Renal Cancer, A498
  Growth Percent: 86.92%
[4]; Renal Cancer, ACHN
  Growth Percent: 73.78%
[4]; Renal Cancer, CAKI-1
  Growth Percent: 73.48%
[4]; Renal Cancer, RXF 393
  Growth Percent: 20.01%
[4]; Renal Cancer, SN12C
  Growth Percent: 68.49%
[4]; Renal Cancer, TK-10
  Growth Percent: 91.34%
[4]; Renal Cancer, UO-31
  Growth Percent: 50.44%
[5]
  Growth Percent: 22.48%
[6]
  Growth Percent: 68.44%

## C[C@]12CCc3sc(Nc4ccc(F)cc4F)nc3C1=CC[C@@H]1[C@@H]2CC[C@]2(C)C(=O)CC[C@@H]12 [IIa.10, (1S,2R,13R,14S,18S)-7-(2,4-difluoroanilino)-2,18-dimethyl-6-thia-8-azapentacyclo[11.7.0.02,10.05,9.014,18]icosa-5(9),7,10-trien-17-one]
[1]
  SK-MEL-25 (% inhibition): 34%
[2]
  SK-MEL-28 (% inhibition): 14%
[3]
  Growth Percent: 49.60%
[4]; Breast Cancer, BT-549
  Growth Percent: 59.58%
[4]; Breast Cancer, HS 578T
  Growth Percent: 55.28%
[4]; Breast Cancer, MCF7
  Growth Percent: 14.62%
[4]; Breast Cancer, MDA-MB-231/ATCC
  Growth Percent: 76.10%
[4]; Breast Cancer, MDA-MB-468
  Growth Percent: 23.25%
[4]; Breast Cancer, T-47D
  Growth Percent: 48.94%
[4]; CNS Cancer, SF-268
  Growth Percent: 70.67%
[4]; CNS Cancer, SNB-19
  Growth Percent: 74.13%
[4]; CNS Cancer, SNB-75
  Growth Percent: 69.43%
[4]; CNS Cancer, U251
  Growth Percent: 40.73%
[4]; Colon Cancer, COLO 205
  Growth Percent: 54.33%
[4]; Colon Cancer, HCC-2998
  Growth Percent: 71.64%
[4]; Colon Cancer, HCT-116
  Growth Percent: −23.35%
[4]; Colon Cancer, HT29
  Growth Percent: 30.06%
[4]; Colon Cancer, KM12
  Growth Percent: 57.14%
[4]; Colon Cancer, SW-620
  Growth Percent: 7.16%
[4]; Leukemia, CCRF-CEM
  Growth Percent: 10.07%
[4]; Leukemia, HL-60(TB)
  Growth Percent: 21.35%
[4]; Leukemia, K-562
  Growth Percent: 2.15%
[4]; Leukemia, MOLT-4
  Growth Percent: 3.63%
[4]; Leukemia, RPMI-8226
  Growth Percent: −20.85%
[4]; Leukemia, SR
  Growth Percent: .71%
[4]; Melanoma, LOX IMVI
  Growth Percent: −49.65%
[4]; Melanoma, M14
  Growth Percent: 57.76%
[4]; Melanoma, MALME-3M
  Growth Percent: 69.51%
[4]; Melanoma, MDA-MB-435
  Growth Percent: 51.52%
[4]; Melanoma, SK-MEL-2
  Growth Percent: 76.42%
[4]; Melanoma, SK-MEL-5
  Growth Percent: 76.86%
[4]; Melanoma, SK-MEL-28
  Growth Percent: 84.36%
[4]; Melanoma, UACC-62
  Growth Percent: 67.65%
[4]; Melanoma, UACC-257
  Growth Percent: 71.94%
[4]; [7]
  Growth Percent: 61.70%
[4]; [8]
  Growth Percent: 78.36%
[4]; [9]
  Growth Percent: 87.08%
[4]; [10]
  Growth Percent: 77.08%
[4]; [11]
  Growth Percent: 66.21%
[4]; [12]
  Growth Percent: 84.23%
[4]; [13]
  Growth Percent: 84.48%
[4]; [14]
  Growth Percent: 60.86%
[4]; Ovarian Cancer, IGROV1
  Growth Percent: 62.11%
[4]; Ovarian Cancer, NCI/ADR-RES
  Growth Percent: 67.57%
[4]; Ovarian Cancer, OVCAR-3
  Growth Percent: −4.15%
[4]; Ovarian Cancer, OVCAR-4
  Growth Percent: 66.68%
[4]; Ovarian Cancer, OVCAR-5
  Growth Percent: 91.77%
[4]; Ovarian Cancer, OVCAR-8
  Growth Percent: 45.20%
[4]; Ovarian Cancer, SK-OV-3
  Growth Percent: 84.10%
[4]; Prostate Cancer, DU-145
  Growth Percent: 24.05%
[4]; Prostate Cancer, PC-3
  Growth Percent: 52.88%
[4]; Renal Cancer, 786-0
  Growth Percent: −27.72%
[4]; Renal Cancer, A498
  Growth Percent: 77.80%
[4]; Renal Cancer, ACHN
  Growth Percent: 37.67%
[4]; Renal Cancer, CAKI-1
  Growth Percent: 38.44%
[4]; Renal Cancer, RXF 393
  Growth Percent: 5.60%
[4]; Renal Cancer, SN12C
  Growth Percent: 64.13%
[4]; Renal Cancer, TK-10
  Growth Percent: 50.24%
[4]; Renal Cancer, UO-31
  Growth Percent: 42.87%
[5]
  Growth Percent: 7.76%
[6]
  Growth Percent: 50.99%
